In paper PMC4074034, “Gefitinib and Luteolin Cause Growth Arrest of Human Prostate Cancer PC-3 Cells via Inhibition of Cyclin G-Associated Kinase and Induction of miR-630” (PLoS ONE, 2014):

Biological target: T1, GAK (cyclin G-associated kinase), GST-tagged human GAK (Homo sapiens, UniProt O14976)
T1 sequence (O14976 1-1311): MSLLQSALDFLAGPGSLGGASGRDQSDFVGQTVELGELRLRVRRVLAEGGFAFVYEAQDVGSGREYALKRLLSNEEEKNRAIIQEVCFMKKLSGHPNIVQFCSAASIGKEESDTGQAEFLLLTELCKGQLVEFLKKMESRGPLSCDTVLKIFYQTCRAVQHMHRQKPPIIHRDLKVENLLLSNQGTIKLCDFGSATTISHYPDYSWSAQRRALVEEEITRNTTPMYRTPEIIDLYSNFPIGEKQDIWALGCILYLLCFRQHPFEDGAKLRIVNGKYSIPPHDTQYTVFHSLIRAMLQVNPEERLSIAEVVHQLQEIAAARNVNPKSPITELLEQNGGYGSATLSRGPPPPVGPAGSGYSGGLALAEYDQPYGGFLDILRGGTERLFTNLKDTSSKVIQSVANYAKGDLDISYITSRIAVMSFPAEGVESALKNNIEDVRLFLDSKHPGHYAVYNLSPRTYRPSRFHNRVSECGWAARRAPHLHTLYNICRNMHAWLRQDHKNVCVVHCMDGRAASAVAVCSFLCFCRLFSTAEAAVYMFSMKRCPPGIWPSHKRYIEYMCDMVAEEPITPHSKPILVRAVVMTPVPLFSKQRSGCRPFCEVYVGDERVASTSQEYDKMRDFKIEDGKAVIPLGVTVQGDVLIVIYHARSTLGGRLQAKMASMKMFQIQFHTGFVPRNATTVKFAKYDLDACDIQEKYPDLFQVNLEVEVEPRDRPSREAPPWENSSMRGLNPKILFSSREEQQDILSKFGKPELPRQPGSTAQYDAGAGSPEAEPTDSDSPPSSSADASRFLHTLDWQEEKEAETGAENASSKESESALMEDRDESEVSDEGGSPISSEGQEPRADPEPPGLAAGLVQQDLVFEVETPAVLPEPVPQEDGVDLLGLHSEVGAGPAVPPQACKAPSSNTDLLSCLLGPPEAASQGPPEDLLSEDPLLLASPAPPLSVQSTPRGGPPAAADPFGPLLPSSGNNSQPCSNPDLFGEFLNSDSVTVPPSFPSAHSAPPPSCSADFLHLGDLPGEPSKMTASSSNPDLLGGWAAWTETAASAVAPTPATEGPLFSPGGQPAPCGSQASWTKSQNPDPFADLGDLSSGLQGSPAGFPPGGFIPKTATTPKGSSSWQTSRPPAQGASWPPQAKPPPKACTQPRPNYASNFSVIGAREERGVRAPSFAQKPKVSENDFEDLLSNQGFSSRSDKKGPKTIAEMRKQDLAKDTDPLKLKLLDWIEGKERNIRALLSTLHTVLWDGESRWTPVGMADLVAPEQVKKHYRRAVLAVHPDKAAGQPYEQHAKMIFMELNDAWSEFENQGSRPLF
Test: […]-ATP in vitro kinase assay, SDS-PAGE autoradiography
Assay type: biochemical
Conditions: substrate mouse PP2A B'γ fragment, also autophosphorylation, 5 µM ATP, 10 mM MgCl2, 5 mM MnCl2, pH 7.5, 30°C, 30 min

Structure (SMILES)	intensity ratio of phosphorylated PP2A B'γ and GAK	intensity ratio of phosphorylated PP2A B'γ and GAK (10 µM compound)
C[S+]([O-])c1ccc(-c2nc(-c3ccc(F)cc3)c(-c3ccncc3)[nH]2)cc1 (stereo not shown) [SB203580]	Both of these compounds inhibited GAK activity similarly	
C#Cc1cccc(Nc2ncnc3cc(OCCOC)c(OCCOC)cc23)c1 [erlotinib]	Both of these compounds inhibited GAK activity similarly	
COc1cc2ncnc(Nc3ccc(F)c(Cl)c3)c2cc1OCCCN1CCOCC1 [gefitinib]	Gefitinib inhibited GAK autophosphorylation and GAK-mediated phosphorylation of PP2A B′γ in a dose-dependent manner	
Oc1ccc(/C=C/c2cc(O)cc(O)c2)cc1 [resveratrol]		the same concentration of resveratrol had only a slight inhibitory effect
